In one assay the test system is Scopolamine-treated mice. Nature of the assay: Effect of improving the memories of amnesia models: scopolamine-induced amnesia, latency. Particulars: 100 mg/kg oral; scopolamine-treated control 83.5 ± 21.5, normal mice 394.2 ± 84.0. Type of assay: in vivo, mice of ddK strain. The source says: (§1) The mice were allowed to take feeds and water freely. The device comprised a dark chamber (a rectangular box 20 cm high, with a floor grid, 12 cm×15 cm) and a bright chamber (a box with an open top and a floor grid, 15 cm×15 cm, surrounded by rectangular walls, 15 cm^w ×20 cm^H, on four sides). The two chambers were in contact with each other sharing a common surface of 15 cm×20 cm which is provided with an opening through which the mouse could move freely. A stainless steel wire, which was connected to an electric impulse apparatus (manufactured by Nippon Medical and Chemical Instruments Co., Ltd.), was placed on the floor grid in the dark chamber. The bright chamber was illuminated with a 60 W electric bulb from a height of about 45 cm above the floor grid. Each mouse was placed on the floor grid in the bright chamber. Immediately after the mouse (four limbs) entered the dark chamber, it was loaded with an electroshock cf DC 50 V through the floor grid for about three seconds. Immediately after electroshock loading, the mouse was taken out from the dark chamber. […] Scopolamine, 3 mg, was administered intraperitoneally to mice to induce amnesia 20 minutes before initiation of acquisition trials. A 5% aqueous suspension of each test compound in gum arabic solution was administered orally to mice immediately after carbon dioxide loading or to mice immediately after completion of the acquisition trials following scopolamine administration.

Another assay has as its system CO2 -treated mice. In words: Effect of improving the memories of amnesia models: CO2-induced amnesia, latency. Type of assay: in vivo, mice of ddK strain. Particulars: 100 mg/kg oral.
Text: as §1, with “Immediately after the acquisition trials, each mouse” for “Scopolamine, 3 mg,”, “left in a container filled with carbon dioxide for a period of 8 seconds” for “administered intraperitoneally to mice”, “amnesia.” for “amnesia 20 minutes before initiation of acquisition trials.”

The subject of assay [1] is sensitized bronchial muscle. In words: Antiallergic action: inhibition of egg albumin-induced contraction of sensitized guinea pig bronchial muscle. Type of assay: tissue-based, guinea pigs of Hartley strain. Particulars: Cavia porcellus; for inhibition at 1 µM: 10^-6 M; for inhibition at 0.1 µM: 10^-7 M; for inhibition at 10 µM: 10^-5 M; for inhibition at 100 µM: 10^-4 M; for inhibition at 0.01 µM: 10^-8 M. The protocol:
Male guinea pigs of Hartley strain (body weight: about 250 g) were intraperitoneally or intramuscularly dosed with egg albumin (dose 100 mg/kg) and the same procedure was repeated after 3 days. After 3 to 4 weeks, the guinea pi-as were bled to death and the sensitized bronchial muscle was excised and cut into 1.5 mm thick rings. Three rings were joined to prepare a specimen. The specimen was suspended in a tissue bath and a load of 1 g was applied. […] After stabilization of the specimen (after about 1 hour), histamine hydrochloride was added to the bath at a final concentration of 10^-5 M. The contraction curve was recorded. After the contraction had been stabilized, the specimen was washed with 3 portions of Ringer's solution at 10-minute intervals to stabilize the contraction (about 1 hour was required). Then, the test compound was added to the tissue bath and, after an interval of 10 minutes, 5 mg/ml of egg albumin was added. The contraction amplitude of the specimen was measured and the percent inhibition was calculated according to the following formula. [formula] A: Contraction amplitude of control group when egg albumin is added A': Contraction amplitude of dosage group when egg albumin is added
H: Contraction amplitude of control group when histamine hydrochloride is added
H': Contraction amplitude of dosage group when histamine hydrochloride is added

Consider 34 molecules from patent US5284850A, “Terpene amino alcohols and medicinal uses thereof” (Kuraray Co., Ltd., priority 1985, dated 1994).

The inhibition is the percentage by which the read-out fell short of the control.

Take `CC(C)(CO)[C@@H](O)C(=O)NCCCC(=O)O` [Calcium hopantenate, calcium hopantenate, reference compound]: the “Latency, Mean ± S.E.” value in the assay on Scopolamine-treated mice came to 80.5 ± 17.2 s; with CO2 -treated mice (CO2-treated control 106.5 ± 24.9, normal mice 394.2 ± 84.0), 115.5 ± 40.6 s. For the same molecule, the “memory activating action, CO2-induced amnesia (in words)” value in the assay on CO2 -treated mice is given as “failed to show a significant memory activating action”.
Turning to `COc1ccccc1N1CCN(CC(O)C(C)(O)CCCC(C)CCCC(C)C)CC1` (stereo not shown) [Compound (42)], in assay [1], the inhibition at 1 µM amounted to 58% and the inhibition at 0.1 µM was 35%.
With `CC(C)=CCCC(C)(O)C(O)CN` (stereo not shown) [Compound (43)], in assay [1], the inhibition at 1 µM turned out to be 65%.
Take `CNCC(O)C(C)(O)CCC=C(C)C` (stereo not shown) [Compound (44)]: in assay [1], the inhibition at 10 µM came out at 63% and the inhibition at 1 µM was found to be 54%.
As to `CC(C)=CCCC(C)(O)C(O)CN(C)C` (stereo not shown) [Compound (45)], in assay [1], the inhibition at 100 µM was found to be 52%, the inhibition at 10 µM came to 41% and the inhibition at 1 µM was 26%.
Regarding `CCNCC(O)C(C)(O)CCC=C(C)C` (stereo not shown) [Compound (46)], in assay [1], the inhibition at 100 µM was determined as 38%, the inhibition at 10 µM came out at 54% and the inhibition at 1 µM turned out to be 23%.
For `CCCNCC(O)C(C)(O)CCC=C(C)C` (stereo not shown) [Compound (47)], in assay [1], the inhibition at 10 µM turned out to be 52%, the inhibition at 1 µM was found to be 43% and the inhibition at 0.1 µM stood at 5%.
With `CCN(CC)CC(O)C(C)(O)CCC=C(C)C` (stereo not shown) [Compound (48)], in assay [1], the inhibition at 10 µM worked out at 47% and the inhibition at 1 µM stood at 39%.
Turning to `CCCCNCC(O)C(C)(O)CCC=C(C)C` (stereo not shown) [Compound (49)], in assay [1], the inhibition at 1 µM is 61% and the inhibition at 0.1 µM was 20.7%.
With `CC(C)=CCCC(C)(O)C(N)CO` (stereo not shown) [Compound (50), 2-amino-3,7-dimethyl-6-octene-1,3-diol], in assay [1], the inhibition at 10 µM was 55%, the inhibition at 1 µM is 20% and the inhibition at 0.1 µM worked out at 0%.
The like results for `CC(C)=CCCC(C)(O)C(CO)N(C)C` (stereo not shown) [Compound (51)] were, in that order, 41%, 18% and 0%.
`CCCNC(CO)C(C)(O)CCC=C(C)C` (stereo not shown) [Compound (52)]: in assay [1], the inhibition at 10 µM is 62%, the inhibition at 1 µM is 31%, the inhibition at 0.1 µM is 7% and the inhibition at 0.01 µM amounted to 0%.
With `CCCCN(CCCC)C(CO)C(C)(O)CCC=C(C)C` (stereo not shown) [Compound (53)], in assay [1], the inhibition at 10 µM amounted to 33%, the inhibition at 1 µM was 59%, the inhibition at 0.1 µM stood at 49% and the inhibition at 0.01 µM was 8%.
Take `CC(C)=CCCC(C)(O)C(CO)N1CCCC1` (stereo not shown) [Compound (54)]: in assay [1], the inhibition at 10 µM is 54%, the inhibition at 1 µM worked out at 63%, the inhibition at 0.1 µM worked out at 33% and the inhibition at 0.01 µM came out at 20%.
The like results for `CC(C)=CCCC(C)(O)C(CO)N1CCCCC1` (stereo not shown) [Compound (55)] were, in that order, 45%, 17%, 9% and 0%.
`CC(C)=CCCC(C)(O)C(CO)N1CCOCC1` (stereo not shown) [Compound (56)]: in assay [1], the inhibition at 10 µM came out at 27%, the inhibition at 1 µM was found to be 44%, the inhibition at 0.1 µM worked out at 16% and the inhibition at 0.01 µM was found to be 0%.
Take `CC(C)=CCCC(C)(O)C(CO)N(C)CCO` (stereo not shown) [Compound (57)]: in assay [1], the inhibition at 10 µM was found to be 35% and the inhibition at 1 µM was 17%.
On to `CC(C)CCCC(C)(O)C(N)CO` (stereo not shown) [Compound (58)], for which, in assay [1], the inhibition at 100 µM was 21%, the inhibition at 10 µM worked out at 0% and the inhibition at 1 µM stood at 0%.
`CCCCN(CCCC)C(CO)C(C)(O)CCCC(C)C` (stereo not shown) [Compound (59), 2-(dibutylamino)-3,7-dimethyl-1,3-octanediol]: in assay [1], the inhibition at 10 µM stood at 49%, the inhibition at 1 µM was determined as 51% and the inhibition at 0.1 µM was found to be 0%.
The like results for `CC(C)CCCC(C)(O)C(CO)N(C)CCO` (stereo not shown) [Compound (60), 2-[(2-hydroxyethyl)methylamino]-3,7-dimethyl-1,3-octanediol] were, in that order, 35%, 11% and 0%.
In the case of `CC(C)CCCC(C)CCCC(C)(O)C(C)N` (stereo not shown) [Compound (61)], in assay [1], the inhibition at 10 µM stood at 70%, the inhibition at 1 µM was 48% and the inhibition at 0.1 µM came out at 24%.
As for `CNC(CO)C(C)(O)CCCC(C)CCCC(C)C` (stereo not shown) [Compound (62)], in assay [1], the inhibition at 10 µM worked out at 39%, the inhibition at 1 µM is 35% and the inhibition at 0.1 µM is 12%.
As to `CC(C)CCCC(C)CCCC(C)(O)C(CO)NC1CCN(Cc2ccccc2)CC1` (stereo not shown) [Compound (63)], in assay [1], the inhibition at 1 µM was found to be 55%, the inhibition at 0.1 µM amounted to 45% and the inhibition at 0.01 µM was 11%.
Consider `CC(C)CCCC(C)CCCC(C)(O)C(CO)n1ccnc1` (stereo not shown) [Compound (64)], for which the inhibition at 0.1 µM in assay [1] was determined as 63%.
Take `COc1ccc(CN2CCN(C(CO)C(C)(O)CCCC(C)CCCC(C)C)CC2)c(OC)c1OC` (stereo not shown) [Compound (65)]: in assay [1], the inhibition at 10 µM came out at 73%, the inhibition at 1 µM was found to be 54% and the inhibition at 0.1 µM stood at 37%.
As for `CC(C)CCCC(C)CCCC(C)(O)C(CO)N(C)C(=O)c1cccnc1` (stereo not shown) [Compound (66), N-methyl-N-(1,3-dihydroxy-3,7,11-trimethyldodecan-2-yl)nicotinamide], in assay [1], the inhibition at 10 µM worked out at 77%, the inhibition at 1 µM worked out at 72% and the inhibition at 0.1 µM was determined as 81%.
For the molecule `CC(C)CCCC(C)CCCC(C)(O)C(CO)NCCO` (stereo not shown) [Compound (67)], in assay [1], the inhibition at 10 µM came to 46%, the inhibition at 1 µM stood at 49% and the inhibition at 0.1 µM came out at 18%.
In the case of `CC(C)CCCC(C)CCCC(C)(O)C(CO)N1CCSCC1` (stereo not shown) [Compound (68)], in assay [1], the inhibition at 10 µM came to 38%, the inhibition at 1 µM came to 36% and the inhibition at 0.1 µM was found to be 22%.
As to `CC(C)CCCC(C)CCCC(C)(O)C(CO)NCCCN1CCOCC1` (stereo not shown) [Compound (69)], in assay [1], the inhibition at 1 µM came out at 65% and the inhibition at 0.1 µM stood at 52%.
For the molecule `CNC(C)C(C)(O)CCCC(C)(O)CCCC(C)C` (stereo not shown) [Compound (70), 2-(methylamino)-3,7,11-trimethyl-3,7-dodecanediol], in assay [1], the inhibition at 1 µM worked out at 42% and the inhibition at 0.1 µM turned out to be 19%.
As for `CC(C)CCCC(C)(O)CCCC(C)(O)C(C)N(C)Cc1ccccc1` (stereo not shown) [Compound (71), 2-(benzylmethylamino)-3,7,11-trimethyl-3,7-dodecanediol], in assay [1], the inhibition at 1 µM came to 37% and the inhibition at 0.1 µM was found to be 46%.
For the molecule `CC(C)CCCC(C)CCCC(C)CCCC(C)(O)C(CO)N(C)C` (stereo not shown) [Compound (72)], in assay [1], the inhibition at 10 µM came to 51%, the inhibition at 1 µM was 60%, the inhibition at 0.1 µM came out at 24% and the inhibition at 0.01 µM amounted to 9%.
For the molecule `CC(C)CCCC(C)CCCC(C)CCCC(C)(O)C(CO)N(C)CCO` (stereo not shown) [Compound (73)], in assay [1], the inhibition at 10 µM was found to be 36%, the inhibition at 1 µM is 58%, the inhibition at 0.1 µM came out at 47% and the inhibition at 0.01 µM was 21%.
Consider `CC(C)CCCC(C)CCCC(C)CCCC(C)(O)C(CO)N(C)CCOC(=O)c1cccnc1` (stereo not shown) [Compound (74)], for which, in assay [1], the inhibition at 10 µM worked out at 43%, the inhibition at 1 µM amounted to 16% and the inhibition at 0.1 µM was 20%.
